Read-outs that look alike come from different tables or passages of the source.
Legend:
[1] = test system: tumor and endothelial cells; set-up: method as in PMID 24773591; settings: relative to prototypes 7 and 8; cited from earlier work
[2] = test system: αβ-tubulin; settings: relative to prototypes 7 and 8; cited from earlier work
[3] = test system: A2780AD cells; test: Anti-proliferative activity, A2780AD (MDR overexpressing P-glycoprotein) ovarian carcinoma cells; format: cell-based, human; settings: P-glycoprotein overexpressing resistant line, mean ± standard error of three independent experiments, read-out: A2780 AD IC50
Text: (§1) One of the most relevant causes of tumor resistance to chemotherapy is the overexpression of membrane pumps which remove the chemotherapeutic agents from the treated cells.

[4] = test system: A2780 cells; test: Anti-proliferative activity, A2780 ovarian carcinoma cells; format: cell-based, human; settings: mean ± standard error of three independent experiments
Text: as §1

[5] = test system: CEM cells; test: Anti-proliferative activity, CEM lymphoblastic leukemia cells (Coulter counting); format: cell-based; settings: Homo sapiens, CCRF-CEM, 96 h, read-out: Tumor cells IC50 CEM
Text: (§2) The anti-proliferative activity of the synthesized benzofurane derivatives was studied in three human cancer cell lines [breast carcinoma (MDA-MB-231), lymphoblastic leukemia (CEM) and cervical carcinoma (HeLa) cells] and one endothelial cell line [human microvascular endothelial cells (HMEC-1)].
(§3) The human microvascular endothelial cell line HMEC-1 was obtained at passage 12 from the Centers for Disease Control and Prevention (Atlanta, GA, USA) and used from passage 17 till 27. Human breast carcinoma (MDA-MB-231), human cervical carcinoma (HeLa) and human T-lymphoid (CEM) cells were obtained from ATCC (Middlesex, UK). Cell lines were maintained in culture for up to 3 months and grown in DMEM, supplemented with 10% FBS, 0.01 M Hepes and 1 mM sodium pyruvate. All cells were cultured in a humidified 5% CO2 incubator at 37 °C.
(§4) HMEC-1 cells were seeded in 48-well plates at 20,000 cells/well. After 24 h, 5-fold dilutions of the compounds were added. The cells were allowed to proliferate 4 days in the presence of the compounds, trypsinized, and counted by means of a Coulter counter (Analis, Belgium). HeLa and MDA-MB-231 cells were seeded in 48-well plates at 10,000 cells/well. After 24 h, different concentrations of the compounds were added. After 3 days of incubation, the cells were trypsinized and counted in a Coulter counter. Suspension cells (human lymphoid Cem cells) were seeded in 96-well plates at 60,000 cells/well in the presence of different concentrations of the compounds, allowed to proliferate for 96 h, and counted in a Coulter counter. The 50% inhibitory concentration (IC50) was defined as the compound concentration required to reduce cell proliferation by 50%.

[6] = test system: HMEC-1 cells; test: Anti-proliferative activity, HMEC-1 microvascular endothelial cells (Coulter counting); format: cell-based; settings: Homo sapiens, HMEC-1, 96 h, read-out: Endothelial cells IC50 HMEC-1
Text: as §2, §3, §4

[7] = test system: HeLa cells; test: Anti-proliferative activity, HeLa cervical carcinoma cells (Coulter counting); format: cell-based; settings: Homo sapiens, 72 h, read-out: Tumor cells IC50 HeLa
Text: as §2, §3, §4

[8] = test system: MDA-MB-231 cells; test: Anti-proliferative activity, MDA-MB-231 breast carcinoma cells (Coulter counting); format: cell-based; settings: Homo sapiens, MDA-MB-231, 72 h, read-out: Tumor cells IC50 MDA-MB-231
Text: as §2, §3, §4

[9] = test system: HMEC-1 cells; test: IncuCyte scratch wound migration assay with PI uptake; format: cell-based
Experimental: Proper tubulin organization is not only required for cell division but also for cell motility and migration. Therefore, we evaluated the capacity of the compounds to inhibit the migration of HMEC-1 endothelial cells. To this end, we used the 96-well IncuCyte® scratch wound assay. After the creation of a cell-free zone (wound) in a confluent cell monolayer, compounds were added, and relative wound density was measured every minute and visualized in time-course plots. PI was added to all wells to visualize toxicity over time, i.e. only dead cells take up this cell-impermeable dye.
Figure 7 Inhibition of HMEC-1 migration. The 96-well IncuCyte® scratch wound assay was used to create a cell-free zone (wound) in a confluent cell monolayer. Next, compounds were added and the relative wound density was measured every minute and visualized in time-course plots (left panels). PI is added to all wells to visualize toxicity over time, i.e. only dead cells take up this cell-impermeable dye (right panels). Average ± SEM (n = 3) are shown.
Wounds were created in confluent HMEC-1 cells by means of the “Incucyte® wound maker”. Next, different concentrations of compound and PI were added and images were taken every 2 min for the duration of the experiment. The algorithm masks each phase-contrast image to identify the position of the wounded (cell-free) and unwounded (cell-occupied) zones. Relative wound density is calculated and visualized in time-course plots.

[10] = test system: MDA-MB-231 cells; test: Caspase-3 activity / apoptosis in live cells (fluorescence microscopy); format: cell-based, human; settings: 1 µM, after 24 h
Experimental: (§5) Figure 6 Mechanism of action of the benzofurane derivatives. (A) Inhibition of cell cycle progression. MDA-MB-231 cells were treated with DMSO (control) or compounds 8, 27 or 28 for 24 h. Next, the cells were harvested, stained with propidium iodide (PI), and cell cycle distribution was evaluated by flow cytometry. Percentages of cells in the different phases of the cell cycle are indicated. (B) Caspase-3 activity. MDA-MB-231 cells were seeded in 48-well plates at 40,000 cells/cm². After 24 h, different concentrations of compounds 8, 27 or 28 and 2 µM of the caspase-3 substrate DEVD-NucView488 were added. After 16 h, the cells were incubated with 2 µg/ml Hoechst 33342 to stain the nucleus, and imaged. (C) Disruption of the vascular network. HMEC-1 cells were cultured on matrigel for 3 h to allow the formation of tube-like structures. Next, different concentrations of compounds were added. Upper panel: After 90 min, pictures were taken and the tubular network was scored (3: intact network, 0: network completely destroyed). Bars show average ± SEM (n = 4). Lower panel: Microscopic pictures of the tubular network 3 h after addition of compound.
To confirm the capacity of compounds 27 and 28 to induce apoptosis, MDA-MB-231 cells were treated with the compounds for 24 h in the presence of NucView® 530 Caspase-3. This substrate is cleaved by active caspase-3 activity (the main executioner enzyme during apoptosis) to generate a fluorescent derivative that is analyzed using fluorescence microscopy.
MDA-MB-231 cells were seeded at 40,000 cells/cm². After 24 h, cells were incubated in Fluorobrite DMEM (Gibco), containing the compound and 2 µM of the caspase-3 substrate DEVD-NucView488 (Biotium, Hayward, CA). After 16 h, the DNA was stained with Hoechst33342 and the cells were imaged by fluorescence microscopy.

[11] = test system: MDA-MB-231 cells; test: Cell cycle analysis (propidium iodide, flow cytometry); format: cell-based, human; settings: 0.3 µM, 24 h treatment
Experimental: Tubulin-binding agents interfere with mitotic spindle formation during cell division. […] Thus, we investigated whether 27 and 28 affect the progression of human breast cancer MDA-MB-231 cells through the cell cycle. […] In contrast, compounds 27 and 28 arrested the cell cycle in the M phase (mitosis) at concentrations as low as 0.03 and 0.1 μM (for compound 27 and 28 respectively).
as §5
MDA-MB-231 cells were seeded in 6-well plates at 125,000 cells/well in DMEM with 10% FBS. After 24 h, the cells were exposed to different concentrations of the compounds. After 24 h, the DNA of the cells was stained with propidium iodide using the CycleTEST PLUS DNA Reagent Kit (BD Biosciences, San Jose, CA). The DNA content of the stained cells was assessed by flow cytometry on a FACSCalibur flow cytometer and analyzed with CellQuest software (BD Biosciences) within 3 h after staining. Cell debris and clumps were excluded from the analysis by appropriate dot plot gating. Percentages of sub-G1, G1, S, and G2/M cells were estimated using appropriate region markers.

[12] = mean ± SD of three independent experiments
[13] = mean ± SD of three independent experiments, 4 days
[14] = mean ± SD of three independent experiments, 3 days of incubation

Row | Structure (SMILES) | IC50 ([3]; Homo sapiens, A2780AD) | IC50 ([4]; Homo sapiens, A2780) | IC50 [5, 12] | melting point | IC50 [7, 14] | IC50 [8, 14] | IC50 [6, 13] | further results
1 | CCC(Nc1ccccc1O)=C1C(=O)CC(c2ccccc2)CC1=O (stereo not drawn) [Compound 9] |  |  |  |  |  |  |  | fold less active in antiproliferative assays [1]: 100 fold; fold less active in tubulin binding [2]: 100 fold
2 | COc1ccc(/C=C\c2cc(OC)c(OC)c(OC)c2)cc1OP(=O)(O)O [CA-4P, reference compound] |  |  |  |  |  |  |  | IC50 [5]: 11 ± 1 nM; IC50 [6]: 2.9 ± 0.1 nM; IC50 [7]: 13 ± 1 nM; IC50 [8]: 2.1 ± 0.3 nM
3 | CCOc1ccccc1NC(C)=C1C(=O)CC(c2ccccc2)CC1=O (stereo not drawn) [Compound 8] | 111 ± 16 nM | 116 ± 8 nM |  |  |  |  |  | IC50 [5]: 190 ± 10 nM; IC50 [6]: 100 ± 20 nM; IC50 [7]: 180 nM; lowest concentration inhibiting wound closure [9]: 0.5 µM; uptake of PI (toxicity) ([9]; at the lowest concentration inhibiting wound closure (0.5, 0.06 and 0.06 µM)): No increased uptake of PI; apoptotic rate (apoptotic cells, caspase-3 substrate) [10]: 9%; IC50 [8]: 68 ± 5 nM; cell cycle arrest [11]: no longer active
4 | COc1cc([C@@H]2c3cc4c(cc3[C@H](O)[C@H]3COC(=O)[C@H]23)OCO4)cc(OC)c1OC [Podophillotoxin, reference compound] |  |  |  |  |  |  |  | IC50 [3]: 74 ± 12 nM; IC50 [4]: 64 ± 9 nM

Further lines, with some results ahead:

Row | IC50 ([3]; Homo sapiens, A2780AD) | IC50 ([4]; Homo sapiens, A2780) | IC50 [5, 12] | melting point | IC50 [7, 14] | IC50 [8, 14] | Structure (SMILES) | IC50 [6, 13] | further results
5 | 2100 ± 300 nM | 1 ± 0.1 nM |  |  |  |  | CC(=O)O[C@H]1C(=O)[C@@]2(C)[C@H]([C@H](OC(=O)c3ccccc3)[C@]3(O)C[C@H](OC(=O)[C@H](O)[C@@H](NC(=O)c4ccccc4)c4ccccc4)C(C)=C1C3(C)C)[C@]1(OC(C)=O)CO[C@@H]1C[C@@H]2O [Paclitaxel, reference compound] |  | 
6 | 660 ± 50 nM | 440 ± 20 nM | 640 ± 360 nM | 178 to 180 °C | 890 ± 30 nM | 170 ± 10 nM | COC(=O)c1cc2cccc(NC(C)=C3C(=O)CC(c4ccccc4)CC3=O)c2o1 (stereo not drawn) [Compound 20, Methyl 7-((1-(2,6-dioxo-4-phenylcyclohexylidene)ethyl)amino)benzofuran-2-carboxylate] | 1600 ± 600 nM | 
7 |  |  | 40 ± 2 nM | 120 to 122 °C | 140 ± 40 nM | 15 ± 2 nM | CC(Nc1cccc2cc(CO)oc12)=C1C(=O)CC(c2ccccc2)CC1=O (stereo not drawn) [Compound 22, 2-(1-((2-(Hydroxymethyl)benzofuran-7-yl)amino)ethylidene)-5-phenylcyclohexane-1,3-dione] | 150 ± 50 nM | 
8 |  |  | 5500 ± 1700 nM | 108 to 110 °C | 12000 ± 6000 nM | 1500 ± 600 nM | CNC(=O)c1cc2cccc(NC(C)=C3C(=O)CC(c4ccccc4)CC3=O)c2o1 (stereo not drawn) [Compound 21, 7-((1-(2,6-Dioxo-4-phenylcyclohexylidene)ethyl)amino)-N-methylbenzofuran-2-carboxamide] | 14000 ± 11000 nM | 
9 |  |  | 38 ± 1 nM | 127 to 129 °C | 160 ± 10 nM | 53 ± 6 nM | CC(Nc1cccc2cc(C)oc12)=C1C(=O)CC(c2ccccc2)CC1=O (stereo not drawn) [Compound 14, 2-(1-((2-Methylbenzofuran-7-yl)amino)ethylidene)-5-phenylcyclohexane-1,3-dione] | 65 ± 3 nM | 
